Assay results reported in ChEMBL document CHEMBL1147713, “Inhibition of trypsin and urokinase by Cbz-amino(4-guanidinophenyl)methanephosphonate aromatic ester derivatives: the influence of the ester group on their biological activity” (Bioorg Med Chem Lett, 2006).

How the values were obtained:
[1] = molecular target: Urokinase-type plasminogen activator (Homo sapiens, UniProt P00749); test: Inhibition of human uPA by chromogenic assay using Cbz-Val-Gly-Arg-pNA as chromogenic substrate
[2] = Inhibition of bovine trypsin by chromogenic assay using Bzl-L-Arg-pNA as chromogenic substrate; set-up: species or system Bos taurus
[3] = Selectivity for trypsin over uPA by chromogenic assay

SMILES	IC50 [1]	IC50 ([2]; read-out: IC50)	Ratio IC50 [3]	IC50 [2]
Cc1ccc(OP(=O)(Oc2ccc(C)cc2)C(NC(=O)OCc2ccccc2)c2ccc(NC(=N)N)cc2)cc1 (centres undefined)	370 nM	176 nM	0.48	–
COc1ccc(OP(=O)(Oc2ccc(OC)cc2)C(NC(=O)OCc2ccccc2)c2ccc(NC(=N)N)cc2)cc1 (centres undefined)	2600 nM	251 nM	0.1	–
CCc1ccc(OP(=O)(Oc2ccc(CC)cc2)C(NC(=O)OCc2ccccc2)c2ccc(NC(=N)N)cc2)cc1 (centres undefined)	7800 nM	17 nM	0.002	–
CC(C)(C)CC(C)(C)c1ccc(OP(=O)(Oc2ccc(C(C)(C)CC(C)(C)C)cc2)C(NC(=O)OCc2ccccc2)c2ccc(NC(=N)N)cc2)cc1 (centres undefined)	204 nM	2310 nM	11.3	–
N=C(N)Nc1ccc(C(NC(=O)OCc2ccccc2)P(=O)(Oc2ccccc2)Oc2ccccc2)cc1 (centres undefined)	532 nM	112 nM	0.21	–
CS(=O)(=O)c1ccc(OP(=O)(Oc2ccc(S(C)(=O)=O)cc2)C(NC(=O)OCc2ccccc2)c2ccc(NC(=N)N)cc2)cc1 (centres undefined)	53 nM	23000 nM	434	–
CC(C)c1ccc(OP(=O)(Oc2ccc(C(C)C)cc2)C(NC(=O)OCc2ccccc2)c2ccc(NC(=N)N)cc2)cc1 (centres undefined)	208 nM	61 nM	0.29	–
N=C(N)Nc1ccc(C(NC(=O)OCc2ccccc2)P(=O)(Oc2ccc3ccccc3c2)Oc2ccc3ccccc3c2)cc1.O=C(O)C(F)(F)F (centres undefined)	455 nM	–	–	Not Active
CC(C)(C)c1ccc(OP(=O)(Oc2ccc(C(C)(C)C)cc2)C(NC(=O)OCc2ccccc2)c2ccc(NC(=N)N)cc2)cc1 (centres undefined)	98 nM	88 nM	0.9	–
CSc1ccc(OP(=O)(Oc2ccc(SC)cc2)C(NC(=O)OCc2ccccc2)c2ccc(NC(=N)N)cc2)cc1 (centres undefined)	26 nM	8.7 nM	0.33	–
